# Measured values: patent publication US9556437B2, “FAT1 gene in cancer and inflammation” (DEPARTMENT OF BIOTECHNOLOGY (DBT), priority 2012, dated 2017)
# “Also recorded” adds a separate entry of the source.
# What was measured:
# Format in all cases: cell-based, human
# FAT1 mRNA = assay: FAT1 knockdown by siRNA, q-PCR for FAT1; details: U87MG cell line
# Experimental: (§1) Cell Culture and siRNA Transfection: The human glioma cell lines U87MG, U373, A172, T98G, GOS3 and SW1088 were obtained from ATCC; Rockville, Md., cultured in DMEM (Sigma-Aldrich, Switzerland) supplemented with 10% (v/v) FCS (Sigma-Aldrich), 3.7 g/l sodium bicarbonate (Sigma-Aldrich), Ciprofloxacin 10 μg/ml and 5% CO2 at 37° C. For transfection, 2×10^5 cells were seeded per 25 cm^2 flask. After 24 hrs, cells were transfected with FAT1 siRNA and universal medium GC control siRNA (Invitrogen) according to the manufacturer's protocol with a final concentration of 20 nM of siRNA using LIPOFECTAMINE 2000 (Invitrogen) and Opti-Mem media (Invitrogen). After 4 hrs of siRNA transfection, the media was supplemented with DMEM containing 2×FCS. The ability of each siRNA to mediate knockdown of FAT1 mRNA was confirmed using qRT-PCR. Photomicrographs of the cells were taken using an inverted phase contrast microscope (Nikon TMS, Phase contrast microscope, Japan). For simultaneous knockdown of FAT1 and PDCD4, siRNA from Dharmacon were used. Transfection was performed as earlier with 50 nM of FAT1 siRNA along with 50 nM of PDCD4 siRNA or 50 nM of control siRNA.
# (§2) cDNA Synthesis and Quantitative PCR: Total RNA was isolated from cells at appropriate time point (vide supra) using TRIzol reagent (Invitrogen), quantified using a Nanodrop ND-1000 spectrophotometer. […]
# MMP3 = MMP3 mRNA expression by q-PCR; details: U87MGsiFAT1 cells
# Experimental: as §1, §2
# VEGF-C = VEGF-C mRNA expression by q-PCR; details: U87MGsiFAT1 cells
# Experimental: as §1, §2
# PLAU (Urokinase) = assay: PLAU mRNA expression by q-PCR; details: U87MGsiFAT1 cells
# Experimental: as §1, §2
# IL1β = IL1β mRNA expression by q-PCR; details: U87MGsiFAT1 vs siControl
# Experimental: as §1, with “The ability of each siRNA to mediate knockdown of FAT1 mRNA was confirmed using qRT-PCR.” left out
# cDNA Synthesis and Quantitative PCR: Total RNA was isolated from cells at appropriate time point (vide supra) using TRIzol reagent (Invitrogen), quantified using a Nanodrop ND-1000 spectrophotometer.
# phospho-c-jun = assay: Western blot phospho-c-jun (Ser63); details: U87MGsiFAT1 vs siControl
# Experimental: (§3) Western Blotting Analyses: Cells were lysed in triple detergent buffer containing protease and phosphatase inhibitors (Sigma Aldrich), lysates were quantified by BCA kit (Pierce, Thermo Fisher Scientific, Rockford, Ill. USA) and electrophoresed in 10% SDS-PAGE and electroblotted on nitrocellulose membrane (Millipore, Billerica, Mass., USA). Membrane was blocked with 5% bovine serum albumin (BSA) in 1×TBS at 4° C. for overnight. Primary and secondary antibody was diluted in 5% BSA and 0.1% tween-20 in 1×TBS. Blot was incubated in primary antibody overnight at 4° C. followed by secondary antibody incubation for 2 hrs at room temperature. Blot was developed by BCIP-NBT (Promega, Madison, Wis., USA) and captured using Alpha Imager EP software.
# phospho-Akt = assay: Western blot phospho-Akt; details: U87MG cells after FAT1 knockdown
# Experimental: FIG. 9: FAT1 knockdown results in increased p-akt level in U87MG cell line; Akt is known to negatively regulate PDCD4 expression; therefore, the effect of FAT1 knockdown on the phosphorylation status of Akt in U87MG cells was checked by Western blot analysis using β-actin as a loading control.
# as §3
# U87MG cells = assay: Cell cycle analysis by flow cytometry (PI staining); details: FACS, 72 hrs after transfection, vs siControl
# Experimental: On day 1, siRNA transfection was carried out. 1 ml of OPTIMEM, 50 picomoles of siRNA (siControl and siFAT1) and 3 μl of LIPOFECTAMINE 2000 was used per well. Cells were then analyzed by flow-cytometery after 72 hrs of transfection to assess the cell cycle distribution of individual cells. Cells were fixed in 70% ethanol overnight at −20′C followed by propidium iodide (PI) staining. Florescence was measured on FACS (florescence activated cell sorter, BD Biosciences, Bedford, Mass.). […] On day 1, transfection was carried out. 50 μl of OPTIMEM, 2 picomoles of siRNA (control and FAT1 siRNA) and 0.5 μl of LIPOFECTAMINE 2000 was used per well. After 4 hrs incubation at 37° C., 50 μl 2× media was added per well. After every time point (24, 48, 72 and 96 hrs of transfection), media was removed from wells and 100 μl of MTT (0.2 mg/ml) was added per well and incubated for 2-4 hrs. The formazan crystals formed were dissolved by addition of 100 μl of DMSO and absorbance was measured at 570 nm.
substance,measurement,setting,value
"siFAT1: FAT1 specific siRNA (Invitrogen), FAT Stealth RNAi siRNA-I (HSS103567), used for further experiments (sense CCCAACACACCUGUGGUCAUGGUAA; antisense UUACCAUGACCACAGGUGUGUUGGG; Stealth modification, chemistry not fully specified; listed as Homo sapiens)",knockdown efficiency among three FAT1 siRNAs,FAT1 mRNA,maximum knockdown efficiency
same,decrease in MMP3 mRNA expression,MMP3,more than 10 fold
same,decrease in VEGF-C mRNA expression,VEGF-C,more than 10 fold
same,decrease in PLAU mRNA expression,PLAU (Urokinase),more than 10 fold
same,reduction in IL1β mRNA expression,IL1β,~10 fold
same,c-jun phosphorylation (p-c-jun level),phospho-c-jun,significantly decreased; also recorded: significant reduction
same,phospho-Akt level,phospho-Akt,increase
same,distribution of cell population in different phases of cell cycle,U87MG cells,no variation; also recorded: No difference
